Experimental data as given in patent US20230141718A1, “METHODS OF TREATING GLIOBLASTOMA” (CELGENE QUANTICEL RESEARCH, INC., priority 2021, published 2023).
Values joined by “and” are separate entries in the source; they are usually repeats but may differ in a detail not shown here. Equal values may be shown once. Read-outs that look alike come from different tables or passages of the source.

Columns and labels:
[1] = Safety (treatment-related adverse events), CC-90010-GBM-001; assay type: in vivo, human
Description: The primary objectives of the study in this example were determination of tumor tissue concentration and plasma pharmacokinetics (PK) of Compound A. The secondary and exploratory objectives included safety, antitumor activity, cerebrospinal fluid concentration, and pharmacodynamics (PD).
The study described in this example (CC-90010-GBM-001 study/NCT04047303) enrolled patients with progressive or recurrent astrocytoma or recurrent glioblastoma who have failed radiation and chemotherapy, and who are candidates for surgical tumor resection as part of their salvage regimen.
Patients were treated with Compound A at 30 mg daily on Day 1 to Day 4 prior to undergoing indicated tumor resection and to maintain platelet count above the minimum of […] recommended for surgery (Part A, preoperative treatment). Following recovery from surgery and a minimum of 4 weeks from the first dose of Compound A, subjects who were fit to continue were treated with Compound A at 45 mg on a 4 days on/24 days off schedule (180 mg per 28-day cycle). Maintenance treatment continued until disease progression, unacceptable toxicity, or withdrawal of consent.

[2] = Plasma pharmacokinetics of Compound A, CC-90010-GBM-002; assay type: in vivo, human; set-up: AUC / AUC(0-inf): concentration or dose not given beside the values; details: for Cmax / AUC / AUC(0-inf): geometric mean; for tmax: median; for AUC: read-out: AUC24
Description: The primary objectives of the study in this example were to establish the safety, maximum tolerated dose (MTD), and recommended phase 2 dose (RP2D) of Compound A. The preliminary efficacy, pharmacokinetics, and pharmacodynamics were also investigated.
The study described in this example (CC-90010-GBM-002/NCT04324840) is a phase 1B dose-finding study investigating standard of care of Compound A in combination with TMZ with or without radiotherapy (RT) in subjects with newly diagnosed GBM. Part A of the study is escalating the oral doses of Compound A in combination with adjuvant TMZ to estimate the MTD and/or the RP2D of Compound A as adjuvant therapy and escalating the oral doses of Compound A in combination with concomitant TMZ+radiotherapy (RT) to estimate the MTD and/or the RP2D of Compound A as concomitant therapy. Part B of the study is the safety and efficacy of Compound A administered at or below the MTD determined for the adjuvant therapy (AT) and concomitant therapy (CT).
For adjuvant therapy, Compound A and TMZ was administered for 6 cycles, then Compound A as a monotherapy was administered in 28-day cycles until disease progression, start of a new anticancer therapy, or withdrawal of consent or physician's decision. For adjuvant therapy, Compound A was administered at 15, 30, and 45 mg 4 days on/24 days off and TMZ was administered at 150 or 200 mg/m^2 QD Days 1-5, followed by Compound A at 45 mg 4 days on/24 days off. For adjuvant therapy, part B, Compound A was administered at RP2D and TMZ was administered at 150 or 200 mg/m^2, followed by Compound A at 45 mg 4 days on/24 days off.
For concomitant therapy, Compound A, TMZ, and RT were administered for 6 weeks, then 4-week break, followed by adjuvant Compound A and TMZ for 6 cycles then Compound A monotherapy in 28-day cycles until disease progression, start of a new anticancer therapy, withdrawal of consent or physician's decision. For concomitant therapy, part A, Compound A was administered at 15 mg or 30 mg QD Days 1-4 (weeks 1,5), TMZ was administered at 75 mg/m^2/day QD, and RT was administered at 2 Gy QD×5 days/week, for 42 days. This was then followed by a break in treatment therapy, e.g., from 1 to up to 4 weeks. Thereafter, adjuvant therapy was initiated by administering Compound A at 30 mg or 45 mg and TMZ at 150 or 200 mg/m^2 QD Days 1-5 of a 28-day cycle. Adjuvant therapy cycles were repeated from 2 to 6 times. After adjuvant therapy, was a monotherapy treatment. Monotherapy comprised administering Compound A at 45 mg 4 days on/24 days off.
Data presented as geometric mean (geometric CV %) for AUC and Cmax, mean (SD) for t1/2, and median (range) for tmax. AI AUC, accumulation index ratio of exposure measured at Day 4 to that after Day 1; AI Cmax, accumulation index ratio of maximum observed concentration at Day 4 to that after Day 1; AUC24, area under the concentration-time curve within a 24-hour dosing interval; Cmax, maximum observed concentration; NA, not applicable; t1/2, apparent terminal phase half-life.

[3] = human, plasma, oral, LD, Part A
[4] = human, plasma, oral, LD, Part B

Cn1cc(-c2cc(S(C)(=O)=O)ccc2OCC2CC2)c2ccccc2c1=O [Compound A, 4-[2-(cyclopropylmethoxy)-5-methylsulfonylphenyl]-2-methylisoquinolin-1-one]
patients with Grade 3/4 TRAEs ([1]; N=20): 45% | patients with grade 3/4 thrombocytopenia ([1]; N=20): 25% | patients with serious TRAEs (hemiparesis and lethargy) ([1]; N=20): one | patients with ≥1 treatment-related adverse event (TRAE) ([1]; N=20): 90% | tolerability ([1]; in vivo): well tolerated | Exposure versus dose ([2]; 15, 30, 45 mg with TMZ): increased proportionally with dose | Cmax ([2]; D1, GBM-002 (Part A) (n = 6)): 306 ng/mL | tmax ([2]; D1, Part A): 2.0 h | Day 4 time to peak Compound A concentration ([2]; Day 4): 0.5 to 2.0 h and 0.5 to 4.0 h | Cmax ([2]; LD, GBM-002 (Part A) (n = 6)): 822 ng/mL | T1/2 ([2]; LD, Part A, mean): 68 h | tmax ([2]; LD, Part A): 1.5 h | AI AUC24 (accumulation index ratio, Day 4 to Day 1) ([2]; Part A): 3.05 | AI Cmax (accumulation index ratio, Day 4 to Day 1) ([2]; Part A): 2.69 | AI AUC24 (accumulation index ratio, Day 4 to Day 1) ([2]; Part B): 2.61 | AI Cmax (accumulation index ratio, Day 4 to Day 1) ([2]; Part B): 2.11 | effect of coadministration with RT and TMZ on Compound A PK ([2]; Part B): did not appear to impact Compound A PK | Cmax ([2]; human, plasma, oral, D1, GBM-002 (Part B) (n = 17), read-out: Cmax): 350 ng/mL | AUC ([2]; human, plasma, oral, D1, Part A): 4580 ng·h/mL | AUC ([2]; human, plasma, oral, D1, Part B): 4890 ng·h/mL | Cmax ([2]; human, plasma, oral, LD, GBM-002 (Part B) (n = 17), read-out: Cmax): 740 ng/mL | AUC(0-inf) [2, 3]: 49800 ng·h/mL | AUC [2, 3]: 13900 ng·h/mL | AUC(0-inf) [2, 4]: 48700 ng·h/mL | AUC [2, 4]: 12700 ng·h/mL | half-life ([2]; human, plasma, oral, LD, Part B, mean, read-out: T1/2 (converted)): 58 h | half-life ([2]; human, plasma, oral, read-out: mean terminal half-life): 60 to 70 h
